For this data set the following is noted: for aqueous solubility: pH 6.8.

Each structure is given as a SMILES string. In brackets after ≈: the same amount, converted by molar mass.

As to `O=C(c1cccc(CNc2ccc3nccnc3n2)c1)N1CCCCC1`, the MDR1-MDCK efflux ratio was determined as 37.4; the intrinsic clearance, human liver microsomes was 13.9 mL/min/kg; the intrinsic clearance, rat liver microsomes worked out at 146 mL/min/kg; the aqueous solubility stood at 56.3 µg/mL (≈ 162 µM).
The matching figures for `N#Cc1cc(F)c(N2CCN(CCO)CC2)c(F)c1`: 0.524, at most 4.74 mL/min/kg, at most 10.7 mL/min/kg and 41.3 µg/mL (≈ 154 µM).
In turn, `C#CCN1CCN(Cc2nc(O)cc(C(F)(F)F)n2)CC1` returned an intrinsic clearance, human liver microsomes of at most 4.74 mL/min/kg; an intrinsic clearance, rat liver microsomes of at most 10.7 mL/min/kg; an aqueous solubility of 42.9 µg/mL (≈ 143 µM).
For the compound `Cc1ccc2nc(CN(C)Cc3cccc(Cl)c3Cl)cc(=O)n2c1`, the MDR1-MDCK efflux ratio is 0.617; the intrinsic clearance, human liver microsomes was 633 mL/min/kg; the intrinsic clearance, rat liver microsomes stood at 4770 mL/min/kg.
On to `N#Cc1ccc(-c2cccc(CN)c2)s1`, for which the intrinsic clearance, human liver microsomes is 356 mL/min/kg and the intrinsic clearance, rat liver microsomes worked out at 557 mL/min/kg.
The matching figures for `Cc1nc(C)c(C(=O)NCc2ncoc2C)s1`: at most 4.74 mL/min/kg and at most 10.7 mL/min/kg.
As to `COc1ccccc1Oc1c(NS(=O)(=O)c2ccc(C(C)(C)C)cc2)nc(-c2ncccn2)nc1OCCO`, the MDR1-MDCK efflux ratio turned out to be 88.2; the intrinsic clearance, human liver microsomes stood at 16 mL/min/kg; the intrinsic clearance, rat liver microsomes stood at 71.8 mL/min/kg.
For `O=c1c2ccccc2cnn1Cc1cccc(OCC(F)(F)F)c1` the same measures were 35.9, at most 4.74 mL/min/kg and 51.3 mL/min/kg.
Regarding `CC(C)c1nccn1Cc1nc2ccccc2[nH]1`, the MDR1-MDCK efflux ratio stood at 24.4; the intrinsic clearance, human liver microsomes was at most 4.74 mL/min/kg; the intrinsic clearance, rat liver microsomes amounted to 238 mL/min/kg.
On to `COc1cc2c(cc1OC)CC(=O)N(CCCN(C)C[C@H]1Cc3cc(OC)c(OC)cc31)CC2`, for which the MDR1-MDCK efflux ratio turned out to be 73.8; the fraction unbound, human plasma turned out to be 0.538; the fraction unbound, rat plasma turned out to be 0.412; the intrinsic clearance, human liver microsomes came to 36.7 mL/min/kg. The intrinsic clearance, rat liver microsomes was determined as 163 mL/min/kg and the aqueous solubility came to 65.8 µg/mL (≈ 140 µM).
Consider `CCn1nc(Cc2ccc(OC)cc2)nc1Cc1sc(C)nc1C`, for which the MDR1-MDCK efflux ratio was determined as 2.11; the intrinsic clearance, human liver microsomes was 21.4 mL/min/kg; the intrinsic clearance, rat liver microsomes worked out at 233 mL/min/kg; the aqueous solubility came out at 28.7 µg/mL (≈ 83.9 µM).
Take `COc1ccccc1CNc1cn[nH]c(=O)c1Cl`: the MDR1-MDCK efflux ratio was found to be 1.3; the intrinsic clearance, human liver microsomes was at most 4.74 mL/min/kg; the intrinsic clearance, rat liver microsomes was determined as 104 mL/min/kg.
Regarding `COc1ccc(-c2cccc(C3CCCN(CC(=O)Nc4ccccn4)C3)n2)cc1` (stereo not drawn), the MDR1-MDCK efflux ratio was 0.833; the intrinsic clearance, human liver microsomes is 131 mL/min/kg; the intrinsic clearance, rat liver microsomes stood at 2220 mL/min/kg; the aqueous solubility came out at 8.1 µg/mL (≈ 20.1 µM).
As for `N#Cc1ccc(CNc2cnc3ccccc3c2)o1`, the MDR1-MDCK efflux ratio is 0.343; the intrinsic clearance, human liver microsomes is 187 mL/min/kg; the intrinsic clearance, rat liver microsomes is 238 mL/min/kg.
The matching figures for `COc1ccc2nc(C)nc(NCc3ncc(C)o3)c2c1`: 1.39, 23.5 mL/min/kg and 296 mL/min/kg.
For the compound `Cc1noc(CC2CCN(Cc3cccnc3)CC2)n1`, the intrinsic clearance, human liver microsomes is 5.69 mL/min/kg and the intrinsic clearance, rat liver microsomes was found to be 48.9 mL/min/kg.
The compound `O=C(O)c1cnn(-c2ccncc2)c1C(F)F` showed an intrinsic clearance, human liver microsomes of at most 4.74 mL/min/kg; an intrinsic clearance, rat liver microsomes of at most 10.7 mL/min/kg; an aqueous solubility of 31.9 µg/mL (≈ 133 µM).
For `Cc1cccnc1CN1CCC(O)(c2ccccc2)CC1`, the MDR1-MDCK efflux ratio turned out to be 0.958; the intrinsic clearance, human liver microsomes was determined as 4.93 mL/min/kg; the intrinsic clearance, rat liver microsomes amounted to 684 mL/min/kg.
On to `O=C(NCCc1ccc2c(c1)OCO2)Nc1ccncc1`, for which the MDR1-MDCK efflux ratio stood at 3.6; the intrinsic clearance, human liver microsomes turned out to be 8.32 mL/min/kg; the intrinsic clearance, rat liver microsomes came out at 27.3 mL/min/kg; the aqueous solubility was found to be 46.5 µg/mL (≈ 163 µM).
For the compound `O=C(Nc1ccccc1)Nc1ccccc1`, the intrinsic clearance, human liver microsomes stood at 16 mL/min/kg; the intrinsic clearance, rat liver microsomes is 91.4 mL/min/kg; the aqueous solubility is 3.9 µg/mL (≈ 18.4 µM).
Take `O=C(Nc1ccncc1)[C@H]1CCCN(S(=O)(=O)c2ccc(Cl)cc2)C1`: the MDR1-MDCK efflux ratio amounted to 20; the intrinsic clearance, human liver microsomes was determined as 22.2 mL/min/kg; the intrinsic clearance, rat liver microsomes was 721 mL/min/kg.
As for `CCN1CCC(N(C)c2ncnc3c2cnn3C)CC1`, the MDR1-MDCK efflux ratio was found to be 1.01; the intrinsic clearance, human liver microsomes came out at 152 mL/min/kg; the intrinsic clearance, rat liver microsomes is 37 mL/min/kg; the aqueous solubility came out at 41.2 µg/mL (≈ 150 µM).
As for `O=C(O)c1cc2cc(O)c(O)cc2c(C(=O)c2ccc(O)c(O)c2)n1`, the intrinsic clearance, human liver microsomes is 35.5 mL/min/kg; the intrinsic clearance, rat liver microsomes came to 110 mL/min/kg; the aqueous solubility stood at 57.9 µg/mL (≈ 170 µM).
On to `Cc1cc2nc(CCC(=O)N3CCC(c4ccc(C(=O)N(C)C)c(N)n4)CC3)[nH]c2cc1C`, for which the MDR1-MDCK efflux ratio is 36.2; the intrinsic clearance, human liver microsomes was 107 mL/min/kg; the intrinsic clearance, rat liver microsomes was determined as 320 mL/min/kg; the aqueous solubility was found to be 39.7 µg/mL (≈ 88.4 µM).
`CC(C)c1c(-c2ccccc2)[n+]([O-])c2c([n+]1[O-])CCC2`: the intrinsic clearance, human liver microsomes is at most 4.74 mL/min/kg and the intrinsic clearance, rat liver microsomes is 14.3 mL/min/kg.
With `Cn1cc(CN2CCN(c3ccccc3O)CC2)c(-c2ccncc2)n1`, the MDR1-MDCK efflux ratio was found to be 2.69; the intrinsic clearance, human liver microsomes is 27.3 mL/min/kg; the intrinsic clearance, rat liver microsomes was determined as 374 mL/min/kg; the aqueous solubility amounted to 33.2 µg/mL (≈ 95 µM).
In the case of `c1nc(N2CCC3(CCCCC3)C2)c2cn[nH]c2n1`, the MDR1-MDCK efflux ratio amounted to 0.8; the intrinsic clearance, human liver microsomes amounted to 8.33 mL/min/kg; the intrinsic clearance, rat liver microsomes is 710 mL/min/kg.
On to `N#Cc1c(O)nc2scc(-c3ccc(-c4ccccc4O)cc3)c2c1O`, for which the MDR1-MDCK efflux ratio stood at 1.19; the intrinsic clearance, human liver microsomes worked out at 11.2 mL/min/kg; the intrinsic clearance, rat liver microsomes was at most 10.7 mL/min/kg; the aqueous solubility came out at 58.8 µg/mL (≈ 163 µM).
In turn, `CCCCN(CC)c1nc(C)nc2c1c(C)c(C)n2-c1c(C)cc(C)cc1C` had an intrinsic clearance, human liver microsomes of 198 mL/min/kg and an intrinsic clearance, rat liver microsomes of 1380 mL/min/kg.
Consider `CCCOc1c2c(nc3cc(C4CCOCC4)nn13)CCC2`, for which the MDR1-MDCK efflux ratio came out at 22.3; the intrinsic clearance, human liver microsomes was at most 4.74 mL/min/kg; the intrinsic clearance, rat liver microsomes was found to be 16.1 mL/min/kg.
On to `CCc1nnc2n1CCN(C(=O)c1ccccc1Oc1cccnc1)C2`, for which the MDR1-MDCK efflux ratio came to 61.5; the intrinsic clearance, human liver microsomes turned out to be 4.83 mL/min/kg; the intrinsic clearance, rat liver microsomes amounted to 74.7 mL/min/kg; the aqueous solubility worked out at 43.4 µg/mL (≈ 124 µM).
Turning to `Cn1ncc2c(NOCc3ccccc3)ncnc21`, the intrinsic clearance, human liver microsomes is 15.2 mL/min/kg and the intrinsic clearance, rat liver microsomes is 49.6 mL/min/kg.
The matching figures for `NC1(c2nc(-c3ccsc3)no2)CCCCC1`: at most 4.74 mL/min/kg and 447 mL/min/kg.
`CC(C)(C)c1[nH]cnc1/C=c1\[nH]c(=O)/c(=C/c2ccccc2)[nH]c1=O`: the MDR1-MDCK efflux ratio was 7.19; the intrinsic clearance, human liver microsomes was at most 4.74 mL/min/kg; the intrinsic clearance, rat liver microsomes was 146 mL/min/kg.
With `OCC1CCCCN1Cc1ccc(-c2ccccc2)cc1` (stereo not drawn), the MDR1-MDCK efflux ratio worked out at 0.708; the fraction unbound, human plasma was 0.233; the fraction unbound, rat plasma came out at 0.248; the intrinsic clearance, human liver microsomes worked out at 20.6 mL/min/kg. In addition, the intrinsic clearance, rat liver microsomes is 2220 mL/min/kg and the aqueous solubility was determined as 41.7 µg/mL (≈ 148 µM).
Turning to `Cc1nc(Cn2nnnc2C(C)(C)C)nc2ccccc12`, the intrinsic clearance, human liver microsomes was 7.42 mL/min/kg and the intrinsic clearance, rat liver microsomes came out at 724 mL/min/kg.
In the case of `Cc1sc(NC(=O)CN2CCOC(C3CCCO3)C2)c(C)c1C` (stereo not drawn), the MDR1-MDCK efflux ratio came out at 1; the intrinsic clearance, human liver microsomes worked out at 12.8 mL/min/kg; the intrinsic clearance, rat liver microsomes was 185 mL/min/kg; the aqueous solubility came to 60.9 µg/mL (≈ 180 µM).
Consider `CC1CCC(CNC2(CCO)CCOCC2)CC1` (stereo not drawn), for which the MDR1-MDCK efflux ratio was found to be 1.29; the intrinsic clearance, human liver microsomes is at most 4.74 mL/min/kg; the intrinsic clearance, rat liver microsomes was 1200 mL/min/kg.
For `O=C(CN1CCCC1=O)NCC1(CO)CCCC1` the same measures were 2.26, at most 4.74 mL/min/kg and at most 10.7 mL/min/kg.
In turn, `Fc1cc(CCNc2ncnc3sccc23)c2c(c1)COCO2` registered an intrinsic clearance, human liver microsomes of 218 mL/min/kg and an intrinsic clearance, rat liver microsomes of 2800 mL/min/kg.
With `CS(=O)(=O)c1cccc(CNc2nc(Nc3ccc4c(c3)CCC(=O)N4)ncc2C(F)(F)F)c1`, the intrinsic clearance, human liver microsomes amounted to 14.2 mL/min/kg; the intrinsic clearance, rat liver microsomes was found to be 133 mL/min/kg; the aqueous solubility worked out at 2.96 µg/mL (≈ 6.03 µM).
Consider `Cc1noc(-c2ccc(-c3ccc(CC(=O)O)cc3)cc2)c1NC(=O)O[C@H](C)c1ccccc1Cl`, for which the MDR1-MDCK efflux ratio is 7.69; the intrinsic clearance, human liver microsomes is at most 4.74 mL/min/kg; the intrinsic clearance, rat liver microsomes is 19.5 mL/min/kg; the aqueous solubility worked out at 10.4 µg/mL (≈ 21.2 µM).
As for `CCOc1ccc(C(=O)Nc2cc(C(=O)OC)ccc2N2CCN(C(C)=O)CC2)cc1`, the MDR1-MDCK efflux ratio worked out at 5.81; the intrinsic clearance, human liver microsomes worked out at 21.8 mL/min/kg; the intrinsic clearance, rat liver microsomes is 444 mL/min/kg; the aqueous solubility turned out to be 2.41 µg/mL (≈ 5.66 µM).
Regarding `CCc1nc2ccc(C(=O)NCc3ccccc3)cc2nc1CC`, the intrinsic clearance, human liver microsomes turned out to be 101 mL/min/kg; the intrinsic clearance, rat liver microsomes is 943 mL/min/kg; the aqueous solubility is 2.15 µg/mL (≈ 6.73 µM).
As to `Cn1cc(-c2ccc(-c3cncc(Cl)c3N3CCC4(CCNC4=O)CC3)cc2)cn1`, the MDR1-MDCK efflux ratio was 61.1; the intrinsic clearance, human liver microsomes stood at 65.7 mL/min/kg; the intrinsic clearance, rat liver microsomes was found to be 308 mL/min/kg; the aqueous solubility came out at 3.11 µg/mL (≈ 7.37 µM).
Take `Cn1nccc1C(=O)NCCc1cc2nc(-c3cccs3)ccn2n1`: the intrinsic clearance, human liver microsomes amounted to 67.5 mL/min/kg and the intrinsic clearance, rat liver microsomes was found to be 565 mL/min/kg.

As usually defined, the aqueous solubility is the dissolved amount per volume that the medium holds. High values mean a readily soluble substance, low ones a poorly soluble substance.

The values are drawn from the Biogen ADME set (Fang et al. 2023).
